The values below come from ChEMBL document CHEMBL5143559, “Discovery of highly potent SARS-CoV-2 Mpro inhibitors based on benzoisothiazolone scaffold” (Bioorg Med Chem Lett, 2022).

What is called inhibition is the relative decrease from the control value, in per cent. Broadly, the IC50 is the concentration at which inhibition is half-maximal.

For assay [1], the target named is Replicase polyprotein 1ab (Severe acute respiratory syndrome coronavirus 2) (UniProt P0DTD1). The assay is described as follows: Inhibition of SARS-CoV-2 main protease using Mca-AVLQSGFRK(Dnp)K as substrate at 40 uM preincubated with enzyme for 10 mins followed by substrate addition and measured every 30 secs for 10 mins by fluorescence based analysis. To be noted: time 20.0 min.

Assay [2] deals with T1, Replicase polyprotein 1ab (Severe acute respiratory syndrome coronavirus 2, UniProt P0DTD1). Put plainly: Inhibition of SARS-CoV-2 main protease using Mca-AVLQSGFRK(Dnp)K as substrate preincubated with enzyme for 10 mins followed by substrate addition and measured every 30 secs for 10 mins by fluorescence based analysis.
Assay [3] addresses Replicase polyprotein 1ab (Severe acute respiratory syndrome coronavirus 2) (UniProt P0DTD1). Put plainly: Irreversible inhibition of SARS-CoV-2 main protease by fast dilution experiment based analysis.
Assay [4] deals with T1, Replicase polyprotein 1ab. Put plainly: Inhibition of SARS-CoV-2 RdRp.

Molecules are shown by their SMILES. Active and inactive are the calls of the source. The rule behind the calls is not given here.

Consider `Nc1ccc2sn(CC(=O)Nc3ccccc3)c(=O)c2c1`, for which the inhibition in assay [1] worked out at 99.8%. Also, the IC50 in assay [2] came to 416 nM.
Regarding `O=C(O)Cn1sc2cc(F)ccc2c1=O`, the inhibition in assay [1] is 98.4%. In assay [2], this molecule gave an IC50 of 1570 nM.
As for `O=C(CN1C(=O)c2ccc(F)cc2S1(=O)=O)Nc1ccccc1`, the inhibition in assay [1] is 18.3%.
Take `O=C(Cn1sc2cc(F)ccc2c1=O)Nc1cc(Cl)cc(Cl)c1`: in assay [1], the inhibition was 108%. In assay [2], this molecule displayed an IC50 of 190 nM.
For `COc1cccc2c(=O)n(CC(=O)Nc3ccccc3)sc12`, in assay [1], the inhibition is -6.8%.
With `O=C(Cn1sc2cc(F)ccc2c1=O)NCCc1ccccc1`, the inhibition in assay [1] was 100%. The molecule also had an IC50 in assay [2] of 388 nM.
Regarding `O=C(Cn1sc2ccccc2c1=O)Nc1ccccc1`, the inhibition in assay [1] turned out to be 99.7%. Inhibition in assay [2] was half-maximal at 165 nM (IC50).
Taken in the same sequence, the figures for `Nc1cccc2c(=O)n(CC(=O)Nc3ccccc3)sc12` were 58.8% and 11000 nM.
Consider `O=C(Cn1sc2cccc(F)c2c1=O)Nc1ccccc1`, for which the inhibition in assay [1] was 99.5%. The same molecule gave an IC50 in assay [2] of 117 nM. For the same molecule, the inhibition entry in assay [3] was “Active”.
For the molecule `Nc1cccc2sn(CC(=O)Nc3ccccc3)c(=O)c12`, in assay [1], the inhibition is 99.4%. It took 1770 nM to reach half-maximal inhibition in assay [2] (IC50).
For `COc1ccccc1NC(=O)Cn1sc2cc(F)ccc2c1=O` the same measures were 99.2% and 180 nM.
Turning to `O=C(Cn1sc2c(C(F)(F)F)cccc2c1=O)Nc1ccccc1`, in assay [1], the inhibition was -7.6%.
Consider `COc1ccc(NC(=O)Cn2sc3cc(F)ccc3c2=O)cc1`, for which the inhibition in assay [1] is 99.3%. It took 300 nM to reach half-maximal inhibition in assay [2] (IC50).
Taken in the same sequence, the figures for `O=C(Cn1sc2cc(F)ccc2c1=O)Nc1ccc(C(F)(F)F)cc1` were 100% and 210 nM.
Taken in the same sequence, the figures for `O=C(Cn1sc2cc(F)ccc2c1=O)Nc1ccccc1C(F)(F)F` were 105% and 335 nM.
For `O=C(Nc1ccccc1)n1sc2cc(F)ccc2c1=O`, the inhibition in assay [1] is 102%. The figures for the IC50 in assay [4] and in assay [2] were 15300 nM and 680 nM, respectively.
In the case of `O=c1[nH]sc2cc(F)ccc12`, in assay [1], the inhibition came to 106%. Moreover, 2290 nM corresponded to half-maximal inhibition in assay [2] (IC50).
For `CC(C)(C)OC(=O)Cn1sc2cc(F)ccc2c1=O` the same measures were 104% and 220 nM.
For `CCNC(=O)Cn1sc2cc(F)ccc2c1=O` the same measures were 102% and 380 nM.
Consider `O=C(Cn1sc2ccc(C(F)(F)F)cc2c1=O)Nc1ccccc1`, for which the inhibition in assay [1] came to 99.7%. Further, half-maximal inhibition in assay [2] (IC50) was put at 393 nM.
For `O=C(Cn1sc2cc(F)ccc2c1=O)NC1CCCC1` the same measures were 95.5% and 400 nM.
Turning to `O=C(Cn1sc2cc(F)ccc2c1=O)NC1CCCCC1`, the inhibition in assay [1] came to 97.7%. The IC50 in assay [4] was 7900 nM; in assay [2] it was 160 nM.
Take `COc1cccc2sn(CC(=O)Nc3ccccc3)c(=O)c12`: in assay [1], the inhibition worked out at 99.6%. In addition, in assay [2], the IC50 is 334 nM.
Turning to `CC(=O)NCn1sc2cc(F)ccc2c1=O`, in assay [1], the inhibition came to 102%. For the same molecule, in assay [2], the IC50 was found to be 253 nM.
For `COc1cc(NC(=O)Cn2sc3cc(F)ccc3c2=O)cc(OC)c1` the same measures were 96.7% and 120 nM.
For `O=C(Cn1sc2ccc(F)cc2c1=O)Nc1ccccc1` the same measures were 99.7% and 287 nM.
In the case of `O=C(Cn1c(=O)c2ccc(F)cc2[s+]1[O-])Nc1ccccc1` (stereo unspecified), the inhibition in assay [1] came out at 23.5%.
As to `Nc1ccc2c(=O)n(CC(=O)Nc3ccccc3)sc2c1`, the inhibition in assay [1] is 99.7%. In assay [2], this molecule gave an IC50 of 443 nM.
Taken in the same sequence, the figures for `O=C(Cn1sc2cc(F)ccc2c1=O)Nc1ccccc1Cl` were 94% and 190 nM.
`O=C(Cn1sc2cc(F)ccc2c1=O)Nc1ccccc1`: the inhibition in assay [1] stood at 102%. The results for the IC50 in assay [4] and in assay [2] were 6400 nM and 190 nM, respectively.
Take `O=C(Cn1sc2cc(F)ccc2c1=O)Nc1cccc(Cl)c1`: the inhibition in assay [1] was 95.5%. For the same molecule, in assay [2], the IC50 is 140 nM.
`COc1cccc(NC(=O)Cn2sc3cc(F)ccc3c2=O)c1`: the inhibition in assay [1] was found to be 101%. The IC50 in assay [2] turned out to be 150 nM.
For the molecule `O=c1c2ccc(F)cc2sn1CCCc1ccccc1`, the inhibition in assay [1] came out at 102%. Further, in assay [2], half-maximal inhibition (IC50) was put at 540 nM.
For `O=C(Cn1sc2cc(C(F)(F)F)ccc2c1=O)Nc1ccccc1`, the inhibition in assay [1] is 100%. This molecule also showed a 50% inhibitory concentration (IC50) in assay [2] of 524 nM.
Taken in the same sequence, the figures for `O=C(Cn1sc2cc(F)ccc2c1=O)Nc1ccc(Cl)cc1` were 95.7% and 150 nM.
For `O=C(Cn1oc2cc(F)ccc2c1=O)Nc1ccccc1`, the inhibition in assay [1] came out at 7%.
Turning to `O=C(Cn1sc2cccc(C(F)(F)F)c2c1=O)Nc1ccccc1`, the inhibition in assay [1] came out at 99.7%. Besides, in assay [2], the IC50 was 224 nM.
As to `O=C(Cn1[nH]c2cc(F)ccc2c1=O)Nc1ccccc1`, in assay [1], the inhibition worked out at 26.3%.
With `O=C(Cn1sc2cc(F)ccc2c1=O)Nc1cccc(C(F)(F)F)c1`, the inhibition in assay [1] stood at 98.9%. In assay [2], the IC50 was determined as 250 nM.
Taken in the same sequence, the figures for `O=C(Cn1sc2cc(F)ccc2c1=O)NCc1ccccc1` were 104% and 230 nM.
As to `COc1ccc2c(=O)n(CC(=O)Nc3ccccc3)sc2c1`, the inhibition in assay [1] amounted to 99.7%. In assay [2], this molecule came in with an IC50 of 287 nM.
Taken in the same sequence, the figures for `CC(C)(C)c1ccc(NC(=O)Cn2sc3cc(F)ccc3c2=O)cc1` were 99.9% and 310 nM.
As to `O=C(Cn1sc2c(F)cccc2c1=O)Nc1ccccc1`, the inhibition in assay [1] is 99.5%. In addition, the midpoint of inhibition in assay [2], the IC50, lay at 328 nM.
Turning to `COc1ccc2sn(CC(=O)Nc3ccccc3)c(=O)c2c1`, the inhibition in assay [1] amounted to 99.7%. For the same molecule, the half-inhibitory concentration (IC50) in assay [2] came to 153 nM.
